# Experimental data taken from US20210253595A1, “2-Aminopyrimidine Derivative and Preparation Method and Use Thereof” (Etern Biopharma (Shanghai) Co., Ltd., priority 2018, published 2021).
# Assays:
# IDH1 R132C = IDH1 R132C (Homo sapiens, UniProt O75874, R132C); test: Effect on IDH1 R132C enzyme activity (NADPH consumption, diaphorase/resazurin fluorescence); type: biochemical; settings: 80 ng IDH1 R132C, α-KG 2 mM, NADPH 20 μM, 60 min preincubation
# Procedure: (§1) Test method: The enzyme activity of IDH1 converting α-KG to 2HG was measured by the consumption of NADPH. After the enzymatic reaction finished, the amount of residual NADPH can be reflected by fluorescence signal generated by the addition of catalytically excessive diphhorase and reazurin.
# (§2) 50 μL mixed liquid of substrate α-KG and NADPH (final concentration of substrate α-KG was 2 mM, final concentration of NADPH was 20 μM), and the plate was incubated in dark for 60 min at room temperature. Detection reaction: 50 μL 1×detection buffer diluted 0.01 unit diabase and 30 μM resazurin were added into each well, and the mixture was incubated in dark at room temperature for 10 min. […] IC50 value was calculated by GraphPad Prism software.
# IDH1 R132H = IDH1 R132H (Homo sapiens, UniProt O75874, R132H); test: Effect on IDH1 R132H enzyme activity (NADPH consumption, diaphorase/resazurin fluorescence); type: biochemical; settings: 100 ng IDH1 R132H, α-KG 1 mM, NADPH 20 μM, 60 min preincubation
# Chain of IDH1 R132H (O75874 whole entry R132H): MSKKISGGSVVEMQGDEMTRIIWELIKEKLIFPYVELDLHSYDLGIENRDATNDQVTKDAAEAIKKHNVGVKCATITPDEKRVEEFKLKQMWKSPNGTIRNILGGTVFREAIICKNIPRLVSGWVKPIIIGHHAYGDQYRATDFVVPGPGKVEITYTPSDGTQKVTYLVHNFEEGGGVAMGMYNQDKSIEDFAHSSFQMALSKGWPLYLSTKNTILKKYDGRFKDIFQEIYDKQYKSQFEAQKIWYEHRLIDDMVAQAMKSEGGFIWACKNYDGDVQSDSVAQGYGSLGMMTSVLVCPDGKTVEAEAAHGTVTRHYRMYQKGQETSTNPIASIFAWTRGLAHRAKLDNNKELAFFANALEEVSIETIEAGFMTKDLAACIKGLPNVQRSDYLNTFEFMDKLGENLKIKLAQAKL
# Procedure: as §1
# as §2, with “α-KG was 1 mM, final” for “α-KG was 2 mM, final”, “and the mixture was incubated” for “and the plate was incubated”
# Chain of IDH1 R132C (O75874 whole entry R132C): as the sequence (O75874 whole entry R132H) above, with H132C counted along it
IC50 (IDH1 R132C),IC50 (IDH1 R132H),SMILES
50 to 500 nM,50 to 500 nM,"CC1Oc2cc(C(F)(F)F)ccc2-n2cnc([C@H](C)Nc3nccc(N4C(=O)OC[C@@H]4[C@H](C)F)n3)c21 (stereo partly drawn) [Compound 15, (4R)-4-((S)-1-fluoroethyl)-3-(2-(((1S)-1-(4-methyl-7-trifluoromethyl-4H-benzo[b]imidazo[1,5-d][1,4]oxazin-3-yl)ethyl)amino)pyrimidin-4-yl)oxazolidin-2-one]"
50 to 500 nM,50 to 500 nM,"CC1Cc2cc(C(F)(F)F)ccc2-n2cnc([C@H](C)Nc3nccc(N4C(=O)OC[C@@H]4[C@H](C)F)n3)c21 (stereo partly drawn) [Compound 14, (4R)-4-((S)-1-fluoroethyl)-3-(2-(((1S)-1-(4-methyl-7-trifluoromethyl-4,5-dihydroimidazo[1,5-a]quinolin-3-yl)ethyl)amino)pyrimidin-4-yl)oxazolidin-2-one]"
< 50 nM,50 to 500 nM,C[C@H](Nc1nccc(N2C(=O)OC[C@@H]2[C@H](C)F)n1)c1ncn2c1CCc1cc(F)ccc1-2 [Compound 11]
50 to 500 nM,50 to 500 nM,"CC1Cc2c([C@H](C)Nc3nccc(N4C(=O)OC[C@@H]4[C@H](C)F)n3)ncn2-c2ccc(C(F)(F)F)cc21 (stereo partly drawn) [Compound 10, (4R)-4-((S)-1-fluoroethyl)-3-(2-(((1S)-1-(5-methyl-7-trifluoromethyl-4,5-dihydroimidazo[1,5-a]quinolin-3-yl)ethyl)amino)pyrimidin-4-yl)oxazolidin-2-one]"

# More lines, now with the values behind:
SMILES,IC50 (IDH1 R132C),IC50 (IDH1 R132H)
"C[C@H](Nc1nccc(N2CC3(CC3)OC2=O)n1)c1ncn2c1CCc1cc(C(F)(F)F)ccc1-2 [Compound 19, (S)-6-(2-((1-(7-trifluoromethyl-4,5-dihydroimidazo[1,5-a]quinolin-3-yl)ethyl)amino)pyrimidin-4-yl)-4-oxa-6-azaspiro[2.4]heptan-5-one]",> 500 nM,> 500 nM
"COc1ccc2c(c1)OCc1c([C@H](C)Nc3nccc(N4C(=O)OC[C@@H]4[C@H](C)F)n3)ncn1-2 [Compound 25, (R)-4-((S)-1-fluoroethyl)-3-(2-(((S)-1-(7-methoxy-4H-benzo[b]imidazo[1,5-d][1,4]oxazin-3-yl)ethyl)amino)pyrimidin-4-yl)oxazolidin-2-one]",50 to 500 nM,50 to 500 nM
"C[C@H](Nc1nccc(N2C(=O)OC[C@@H]2[C@H](C)F)n1)c1ncn2c1COc1cc(C#N)ccc1-2 [Compound 27, 3-((S)-1-((4-((R)-4-((S)-1-fluoroethyl)-2-oxyoxazolidin-3-yl)pyrimidin-2-yl)amino)ethyl)-4H-benzo[b]imidazo[1,5-d][1,4]oxazin-7-nitrile]",50 to 500 nM,50 to 500 nM
"C[C@H](Nc1nccc(N2C(=O)OC[C@@H]2[C@H](C)F)n1)c1ncn2c1COc1cc(F)ccc1-2 [Compound 24, (R)-3-(2-(((S)-1-(7-fluoro-4H-benzo[b]imidazo[1,5-d][1,4]oxazin-3-yl)ethyl)amino)pyrimidin-4-yl)-4-((S)-1-fluoroethyl)oxazolidin-2-one]",< 50 nM,< 50 nM
"C[C@H](Nc1nccc(N2C(=O)OC[C@@H]2[C@H](C)F)n1)c1ncn2c1CCc1c(Cl)cccc1-2 [Compound 29, (R)-3-(2-(((S)-1-(6-chloro-4,5-dihydroimidazo[1,5-a]quinolin-3-yl)ethyl)amino)pyrimidin-4-yl)-4-((S)-1-fluoroethyl)oxazolidin-2-one]",50 to 500 nM,< 50 nM
